Experimental data published in the supplement of paper PMC8967900.

Experiments:
Assay in all cases: selective drug sensitivity score (sDSS, relative to normal bone marrow) (sDSS (score)); higher = more potent and effective on the cell line relative to normal bone marrow cells
Settings in all cases: 72 h
ALL-PO = test system: ALL-PO
CCRF-CEM = test system: CCRF-CEM
COG-LL-319h = test system: COG-LL-319h
COG-LL-394h = test system: COG-LL-394h
DND-41 = test system: DND-41
HAL-01 = test system: HAL-01
KASUMI-10 = test system: KASUMI-10
KASUMI-2 = test system: KASUMI-2
LC4-1 = test system: LC4-1
MHH-CALL-2 = test system: MHH-CALL-2
MHH-CALL-3 = test system: MHH-CALL-3
MN-60 = test system: MN-60
MOLT-14 = test system: MOLT-14
MOLT-4 = test system: MOLT-4
NALM-6 = test system: NALM-6
P12-ICHIKAWA = test system: P12-ICHIKAWA
PF-382 = test system: PF-382
REH = test system: REH
RPMI-8402 = test system: RPMI-8402
SEM cells = test system: SEM cells
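Further: ALL cell lines in 384-well plates, five doses spanning 10,000-fold, each plate scaled between vehicle and 100 µmol/L benzalkonium chloride controls, sDSS an adapted area-under-curve metric.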

SMILES | selective drug sensitivity score (ALL-PO) | selective drug sensitivity score (CCRF-CEM) | selective drug sensitivity score (COG-LL-319h) | selective drug sensitivity score (COG-LL-394h) | selective drug sensitivity score (DND-41) | selective drug sensitivity score (HAL-01) | selective drug sensitivity score (KASUMI-10) | selective drug sensitivity score (KASUMI-2) | selective drug sensitivity score (LC4-1) | selective drug sensitivity score (MHH-CALL-2) | selective drug sensitivity score (MHH-CALL-3) | selective drug sensitivity score (MN-60) | selective drug sensitivity score (MOLT-14) | selective drug sensitivity score (MOLT-4) | selective drug sensitivity score (NALM-6) | selective drug sensitivity score (P12-ICHIKAWA) | selective drug sensitivity score (PF-382) | selective drug sensitivity score (REH) | selective drug sensitivity score (RPMI-8402) | selective drug sensitivity score (SEM cells)
COc1cc2nccc(Oc3ccc(NC(=O)Nc4cc(C)on4)c(Cl)c3)c2cc1OC [Tivozanib] (top concentration 10000 nM) | 1.76 | 1.26 | 12.6 | 1.46 | 0.36 | -0.74 | 2.96 | 4.96 | 5.96 | -0.34 | -3.64 | 0.66 | 4.46 | 3.46 | 2.36 | 2.66 | 1.36 | 0.36 | 1.76 | 4.76
Cc1cc(Nc2cc(N3CCN(C)CC3)nc(Sc3ccc(NC(=O)C4CC4)cc3)n2)n[nH]1 [Tozasertib] (top concentration 10000 nM) | 17.3 | 21.6 | 19.2 | 3.36 | 0.36 | 8.36 | 15.6 | 12.3 | 20.6 | 11 | 9.66 | -0.74 | 20.9 | 15.6 | 16.2 | 22.8 | 7.06 | 21.2 | 4.56 | 22.3
CC1=C(/C=C/C(C)=C/C=C/C(C)=C/C(=O)O)C(C)(C)CCC1 [Tretinoin] (top concentration 10000 nM) | -2.3 | -2.3 | -2.4 | -2.4 | -2.4 | 1.2 | -1.8 | -2.4 | -2.4 | -1.7 | -1.2 | -2.4 | -2.4 | -2.4 | -2.4 | -2.4 | -2.4 | -1.8 | -2.4 | 0
COC(=O)c1ccc2c(c1)[nH]c1ncnc(NCCCN3CCCCC3)c12 [UM729] (top concentration 10000 nM) | 2.54 | 3.84 | -0.06 | 4.34 | 0.64 | -0.06 | 2.74 | -0.06 | 1.54 | -0.06 | 0.54 | 1.04 | 3.94 | 2.04 | 0.34 | -0.06 | 1.24 | 0.24 | 2.34 | 2.14
COc1cc2c(NC3CCN(C(C)C)CC3)nc(N3CCC(F)(F)CC3)nc2cc1OCCCN1CCCC1 [UNC0642] (top concentration 10000 nM) | 2.96 | -0.54 | -1.44 | 2.76 | 5.56 | -3.54 | -1.64 | -0.84 | -1.14 | 0.96 | -1.64 | -3.74 | -1.24 | -3.44 | -2.24 | -0.14 | -2.14 | -0.14 | -0.74 | -0.14
O=C(c1ccc(C(=O)N2CCC(N3CCCC3)CC2)c(Nc2ccccc2)c1)N1CCC(N2CCCC2)CC1 [UNC1215] (top concentration 10000 nM) | 0 | 0 | 0 | 0 | 0 | 0 | 0 | 0 | 0 | 0 | 0 | 0 | 0 | 0 | 0 | 0 | 0 | 0.5 | 0 | 0
CCCC(CCC)C(=O)O [Valproic_acid] (top concentration 1000000 nM) | 0 | 0 | 0 | 0 | 0 | 0 | 0 | 0 | 0 | 0 | 0 | 0 | 0 | 0 | 0 | 0 | 0 | 0 | 0 | 0
Clc1ccc(Nc2nnc(Cc3ccncc3)c3ccccc23)cc1 [Vatalanib] (top concentration 10000 nM) | 0 | 0 | 0 | 0 | 0 | 0 | 0 | 0 | 0 | 0.1 | 0 | 0.1 | 0 | 0 | 0 | 0 | 0 | 0 | 0 | 0
CCCS(=O)(=O)Nc1ccc(F)c(C(=O)c2c[nH]c3ncc(-c4ccc(Cl)cc4)cc23)c1F [Vemurafenib] (top concentration 10000 nM) | 2.46 | 3.46 | 0.36 | -1.14 | 3.66 | 0.16 | -0.84 | -1.14 | 3.56 | 3.56 | -1.14 | -1.14 | 2.66 | 2.26 | -1.14 | 4.16 | 3.56 | 4.86 | 2.06 | 3.26
CC[C@]1(O)C[C@H]2CN(CCc3c([nH]c4ccccc34)[C@@](C(=O)OC)(c3cc4c(cc3OC)N(C)[C@H]3[C@@](O)(C(=O)OC)[C@H](OC(C)=O)[C@]5(CC)C=CCN6CC[C@]43[C@@H]65)C2)C1 [Vinblastine] (top concentration 1000 nM) | 7.2 | -1.5 | 19.7 | -0.1 | -0.7 | -5.1 | -1 | 6.7 | 13.6 | -3.2 | -0.1 | -2.4 | -2.5 | -3.5 | 6.3 | -3.5 | -5.3 | 7.1 | 1.6 | 10.8
CC[C@]1(O)C[C@H]2CN(CCc3c([nH]c4ccccc34)[C@@](C(=O)OC)(c3cc4c(cc3OC)N(C=O)[C@H]3[C@@](O)(C(=O)OC)[C@H](OC(C)=O)[C@]5(CC)C=CCN6CC[C@]43[C@@H]65)C2)C1 [Vincristine] (top concentration 1000 nM) | 8.32 | 4.42 | 16.3 | 3.92 | 2.02 | -6.38 | 4.72 | 8.92 | 16.7 | 5.52 | 4.22 | -1.58 | 7.72 | 4.02 | 10.7 | 4.52 | -0.18 | 17.5 | 4.72 | 12.7
FC(F)c1nc2ccccc2n1-c1nc(N2CCOCC2)nc(N2CCOCC2)n1 [ZSTK474] (top concentration 10000 nM) | 10.5 | 9.36 | 4.86 | 0.86 | -3.14 | 18.5 | 0.96 | 6.76 | -0.44 | 11.4 | 10.3 | 0.36 | -4.14 | 7.26 | 11.9 | 3.66 | 5.66 | 9.36 | 5.86 | 5.66
